melting point: 130 °C
Compound: CCC(=O)Nc1ccc(-c2noc(C(F)(F)F)n2)cn1 [Ex-1, N-[5-[5-(trifluoromethyl)-1,2,4-oxadiazol-3-yl]-2-pyridyl]propanamide]
